Counter-ions that a name gives are not always drawn. Like-named read-outs stand apart in the source and are kept apart here.
How the values were obtained:
[1] = test system: NCI-H292 lung cancer cells; assay: FDA drug screening, complete media vs cholesterol-free media with simvastatin (TABLE 2); assay type: cell-based, human
[2] = test system: NCI-H292 lung cancer cells; assay: FDA drug screening, complete media vs cholesterol-free media without statin (TABLE 1); assay type: cell-based, human
[3] = NCI-H292 cells, FDA drug library screen, cholesterol-free media with simvastatin 0.04 μM
[4] = NCI-H292 cells, FDA drug library screen, complete media
[5] = complete media minus cholesterol-free media + simvastatin, >0 enhanced anti-cancer activity, about 0 neutral, <0 antagonist
[6] = Complete minus Cholesterol-free, >0 enhanced anti-cancer activity, about 0 neutral, <0 antagonist
[7] = NCI-H292 cells, cholesterol-free media without statin, FDA drug library screen
[8] = NCI-H292 cells, complete media, FDA drug library screen
[9] = NCI-H292 cells, drug in cholesterol-free media with simvastatin 0.04 μM
[10] = NCI-H292 cells, drug in complete media
[11] = complete media vs cholesterol-free media + simvastatin (0.04 μM), […]
[12] = NCI-H292 cells, cholesterol-free media without statin
[13] = complete vs cholesterol-free media, […]
[14] = NCI-H292 cells, cholesterol-free media with simvastatin 0.04 μM, […]
[15] = NCI-H292 cells, complete media, […]
[16] = complete media minus cholesterol-free media + simvastatin, […]
[17] = Complete minus Cholesterol-free, […]
[18] = NCI-H292 cells, cholesterol-free media with simvastatin 0.04 μM, FDA drug library screen (TABLE 2)
[19] = NCI-H292 cells, complete media, FDA drug library screen (TABLE 2)
[20] = complete media minus cholesterol-free media + simvastatin (0.04 μM), >0 enhanced anti-cancer activity, about 0 neutral, <0 antagonist
[21] = complete media vs cholesterol-free media + simvastatin (0.04 μM), >0 enhanced anti-cancer activity, about 0 neutral, <0 antagonist
[22] = NCI-H292 cells, cholesterol-free media with simvastatin 0.04 μM, cell growth value in FDA drug screen
[23] = NCI-H292 cells, complete media, cell growth value in FDA drug screen
[24] = Complete minus Cholesterol-free, greater than 0 enhanced anti-cancer activity, about 0 neutral, below 0 antagonist
[25] = NCI-H292 cells, FDA drug library screen, cholesterol-free media without statin
[26] = complete vs cholesterol-free media, greater than 0 enhanced anti-cancer activity, about 0 neutral, below 0 antagonists
[27] = Complete minus Cholesterol-free, greater than 0 enhanced anti-cancer activity, about 0 neutral, below 0 antagonists
[28] = NCI-H292 cells in cholesterol-free media without statin
[29] = NCI-H292 cells in complete media
[30] = NCI-H292 cells, FDA library drug in cholesterol-free media with simvastatin 0.04 μM
[31] = NCI-H292 cells, FDA library drug in complete media

COC(=O)N[C@H](C(=O)N1CCC[C@H]1c1nc(-c2ccc(-c3ccc(-c4c[nH]c([C@@H]5CCCN5C(=O)[C@@H](NC(=O)OC)C(C)C)n4)cc3)cc2)c[nH]1)C(C)C [Daclatasvir]
Cholesterol-free media + simvastatin (0.04 μM) [1, 3]: 0.9463 | Complete Media [1, 4]: 1.136 | Difference [1, 5]: 0.19 | Difference [2, 6]: 0.04 | Cholesterol-free [2, 7]: 0.703 | Complete [2, 8]: 0.7437

CC(=O)O[C@H]1C[C@@H]2CC[C@@H]3[C@H](CC[C@@]4(C)[C@H]3C[C@H]([N+]3(C)CCCCC3)[C@@H]4OC(C)=O)[C@@]2(C)C[C@@H]1[N+]1(C)CCCCC1.[Br-].[Br-] [Pancuronium (dibromide)]
Cholesterol-free media + simvastatin (0.04 μM) [1, 9]: 1.121 | Complete Media [1, 10]: 0.885 | Difference [1, 11]: −0.24 | Cholesterol-free [2, 12]: 1.193 | Complete ([2]; NCI-H292 cells, complete media): 0.8678 | Difference [2, 13]: −0.33

Paromomycin (sulfate)
Cholesterol-free media + simvastatin (0.04 μM) [1, 9]: 1.383 | Complete Media [1, 10]: 1.216 | Difference [1, 11]: −0.17 | Cholesterol-free [2, 7]: 0.541 | Complete [2, 8]: 1.15 | Difference [2, 13]: 0.61

CCN(CC)c1ccc(C(=C2C=CC(=[N+](CC)CC)C=C2)c2cc(S(=O)(=O)[O-])ccc2S(=O)(=O)[O-])cc1.[Na+] [Isosulfan blue]
Cholesterol-free media + simvastatin (0.04 μM) [1, 14]: 1.148 | Complete Media [1, 15]: 1.247 | Difference [1, 16]: 0.10 | Difference [2, 17]: −0.07 | Cholesterol-free [2, 7]: 1.156 | Complete [2, 8]: 1.087

Nc1ccn([C@@H]2O[C@H](CO)[C@@H](O)C2(F)F)c(=O)n1 [Gemcitabine]
Cholesterol-free media + simvastatin (0.04 μM) [1, 18]: 0.08143 | Complete Media [1, 19]: 0.09095 | Difference [1, 20]: 0.01 | Difference [2, 6]: −0.03 | Cholesterol-free [2, 7]: 0.04572 | Complete [2, 8]: 0.01326

Cc1ncc(COP(=O)(O)O)c(C=O)c1O [Pyridoxal phosphate]
Cholesterol-free media + simvastatin (0.04 μM) [1, 9]: 1.11 | Complete Media [1, 10]: 0.9056 | Difference [1, 21]: −0.20 | Cholesterol-free [2, 7]: 1.045 | Complete [2, 8]: 1.512 | Difference ([2]; complete vs cholesterol-free media, >0 enhanced anti-cancer activity, about 0 neutral, <0 antagonist): 0.47

CCOC(=O)CCC(=O)O[C@H]1[C@H](O[C@@H]2[C@@H](C)[C@H](O[C@H]3C[C@@](C)(OC)[C@@H](O)[C@H](C)O3)[C@@H](C)C(=O)O[C@H](CC)[C@@](C)(O)[C@H](O)[C@@H](C)C(=O)[C@H](C)C[C@@]2(C)O)O[C@H](C)C[C@@H]1N(C)C [Erythromycin Ethylsuccinate]
Cholesterol-free media + simvastatin (0.04 μM) [1, 3]: 1.069 | Complete Media [1, 4]: 0.9797 | Difference [1, 11]: −0.09 | Cholesterol-free [2, 12]: 1.248 | Complete ([2]; NCI-H292 cells, complete media): 0.8907 | Difference [2, 13]: −0.36

OCCOCCN1CCN(C2=Nc3ccccc3Sc3ccccc32)CC1 [Quetiapine]
Cholesterol-free media + simvastatin (0.04 μM) [1, 22]: 0.8037 | Complete Media [1, 23]: 0.9281 | Difference [1, 5]: 0.12 | Difference [2, 24]: −0.09 | Cholesterol-free [2, 25]: 0.8483 | Complete [2, 4]: 0.7581

COS(=O)(=O)[O-].COc1cc(N)cn[n+]1-c1ccccc1 [Amezinium (methylsulfate)]
Cholesterol-free media + simvastatin (0.04 μM) [1, 3]: 1.322 | Complete Media [1, 4]: 1.744 | Difference [1, 16]: 0.42 | Cholesterol-free [2, 7]: 1.242 | Complete [2, 8]: 1.933 | Difference [2, 13]: 0.69

N[C@@H](CS)C(=O)O [L-Cysteine]
Cholesterol-free media + simvastatin (0.04 μM) [1, 18]: 1.471 | Complete Media [1, 19]: 1.439 | Difference [1, 20]: −0.03 | Difference [2, 6]: −0.21 | Complete ([2]; NCI-H292 cells, complete media): 0.7323

O=Cc1ccc(O[C@@H]2O[C@H](CO)[C@@H](O)[C@@H](O)[C@H]2O)cc1 [Helicid]
Cholesterol-free media + simvastatin (0.04 μM) [1, 9]: 1.093 | Complete Media [1, 10]: 0.9239 | Difference [1, 11]: −0.17 | Difference [2, 17]: −0.20 | Cholesterol-free [2, 12]: 1.202 | Complete ([2]; NCI-H292 cells, complete media): 1.003

NC(CO)(CO)CO.O=C(c1ccccc1)c1ccc2n1CCC2C(=O)O (stereo not shown) [Ketorolac (tromethamine salt)]
Cholesterol-free media + simvastatin (0.04 μM) [1, 9]: 1.289 | Complete Media [1, 10]: 1.116 | Difference [1, 21]: −0.17 | Cholesterol-free [2, 12]: 1.112 | Complete ([2]; NCI-H292 cells, complete media): 0.6871 | Difference [2, 26]: −0.42

O=C(O)[C@H](O)[C@@H](O)[C@H](O)[C@H](O)CO [D-Gluconic acid]
Cholesterol-free media + simvastatin (0.04 μM) [1]: 1.103 | Complete Media [1]: 0.9995 | Difference [1]: −0.10 | Cholesterol-free [2]: 1.845 | Complete [2]: 1.115 | Difference [2]: −0.73

Cc1c(C(C)C)c(=O)n(-c2ccccc2)n1C [Propyphenazone]
Cholesterol-free media + simvastatin (0.04 μM) [1, 3]: 2.378 | Difference [1, 20]: −1.31 | Difference [2, 24]: −0.12 | Cholesterol-free [2, 25]: 1.128 | Complete [2, 4]: 1.005

CCCCC[C@H](O)/C=C/[C@H]1[C@H](O)CC(=O)[C@@H]1C/C=C\CCCC(=O)O [Prostaglandin E2]
Cholesterol-free media + simvastatin (0.04 μM) [1, 22]: 0.8899 | Complete Media [1, 23]: 0.9562 | Difference [1, 5]: 0.07 | Difference [2, 27]: −0.61 | Cholesterol-free [2, 28]: 1.546 | Complete [2, 29]: 0.9346

O=C(O)CCn1c2c(c3ccccc31)C[C@H](NS(=O)(=O)c1ccc(F)cc1)CC2 [Ramatroban]
Cholesterol-free media + simvastatin (0.04 μM) [1, 3]: 1.061 | Complete Media [1, 4]: 0.9101 | Difference [1, 21]: −0.15 | Difference [2, 6]: −0.25 | Cholesterol-free [2, 12]: 0.905 | Complete ([2]; NCI-H292 cells, complete media): 0.6524

CCCC(=O)O[C@]1(C(=O)CCl)[C@H](C)C[C@@H]2[C@@H]3CCC4=CC(=O)C=C[C@]4(C)[C@]3(F)C(=O)C[C@@]21C [Clobetasone butyrate]
Cholesterol-free media + simvastatin (0.04 μM) [1, 14]: 0.5437 | Complete Media [1, 15]: 0.5699 | Difference [1, 16]: 0.03 | Difference [2, 17]: −0.18 | Cholesterol-free [2, 25]: 0.6832 | Complete [2, 4]: 0.5004

NC(=O)NO [Hydroxyurea]
Cholesterol-free media + simvastatin (0.04 μM) [1, 30]: 1.418 | Complete Media [1, 31]: 1.131 | Difference [1, 21]: −0.29 | Difference [2, 27]: −0.79 | Cholesterol-free [2, 28]: 1.72 | Complete [2, 29]: 0.9327

COCCCOc1ccnc(C[S+]([O-])c2nc3ccccc3[n-]2)c1C.[Na+] (stereo not shown) [Rabeprazole (sodium)]
Cholesterol-free media + simvastatin (0.04 μM) [1, 30]: 1.461 | Complete Media [1, 31]: 0.9065 | Difference [1, 21]: −0.55 | Difference [2, 27]: −0.70 | Cholesterol-free [2, 28]: 1.634 | Complete [2, 29]: 0.9326

Cc1cccc(C)c1OCC(=O)N[C@@H](Cc1ccccc1)[C@@H](O)C[C@H](Cc1ccccc1)NC(=O)[C@H](C(C)C)N1CCCNC1=O [Lopinavir]
Cholesterol-free media + simvastatin (0.04 μM) [1, 3]: 1.549 | Complete Media [1, 4]: 1.393 | Difference [1, 21]: −0.16 | Cholesterol-free [2, 12]: 1.281 | Complete ([2]; NCI-H292 cells, complete media): 0.8723 | Difference [2, 26]: −0.41

CN(C)C(=O)c1cc2cnc(Nc3ccc(N4CCNCC4)cn3)nc2n1C1CCCC1 [Ribociclib]
Cholesterol-free media + simvastatin (0.04 μM) [1, 22]: 0.6195 | Complete Media [1, 23]: 0.7338 | Difference [1, 5]: 0.11 | Difference [2, 6]: −0.30 | Cholesterol-free [2, 12]: 1.15 | Complete ([2]; NCI-H292 cells, complete media): 0.8537

CCc1oc2ccccc2c1C(=O)c1cc(Br)c(O)c(Br)c1 [Benzbromarone]
Cholesterol-free media + simvastatin (0.04 μM) [1, 22]: 0.9582 | Complete Media [1, 23]: 0.9819 | Difference [1, 5]: 0.02 | Difference [2, 27]: −0.92 | Cholesterol-free [2, 28]: 1.902 | Complete [2, 29]: 0.9837

CN1CCC[C@@H]1Cc1c[nH]c2ccc(CCS(=O)(=O)c3ccccc3)cc12 [Eletriptan (hydrobromide)]
Cholesterol-free media + simvastatin (0.04 μM) [1, 30]: 1.33 | Complete Media [1, 31]: 0.9128 | Difference [1, 21]: −0.42 | Cholesterol-free [2, 12]: 1.406 | Complete ([2]; NCI-H292 cells, complete media): 1.08 | Difference [2, 26]: −0.33

COc1cc2c3cc1Oc1c(OC)c(OC)cc4c1[C@@H](Cc1ccc(O)c(c1)Oc1ccc(cc1)C[C@@H]3N(C)CC2)N(C)CC4 [berbamine, reference compound]
Cholesterol-free media + simvastatin (0.04 μM) ([1]; NCI-H292 cells, FDA drug library screen, cholesterol-free media with simvastatin 0.04 μM, listed as Berbamine): 0.4924 | Complete Media ([1]; NCI-H292 cells, FDA drug library screen, complete media, listed as Berbamine): 1.667 | Difference ([1]; complete media minus cholesterol-free media + simvastatin, […], listed as Berbamine): 1.17 | Cholesterol-free ([2]; NCI-H292 cells, cholesterol-free media without statin, listed as Berbamine): 1.275 | Complete ([2]; NCI-H292 cells, complete media, listed as Berbamine): 0.9674 | Difference ([2]; complete vs cholesterol-free media, […], listed as Berbamine): −0.31

CCCc1cc(C(N)=S)ccn1 [Prothionamide]
Cholesterol-free media + simvastatin (0.04 μM) [1, 22]: 1.039 | Complete Media [1, 23]: 1.099 | Difference [1, 5]: 0.06 | Difference [2, 27]: −0.62 | Cholesterol-free [2, 28]: 1.391 | Complete [2, 29]: 0.7758

Nc1ccc(S(=O)(=O)Nc2ccc(Cl)nn2)cc1 [Sulfachloropyridazine]
Cholesterol-free media + simvastatin (0.04 μM) [1, 18]: 0.9751 | Complete Media [1, 19]: 0.932 | Difference [1, 20]: −0.04 | Difference [2, 24]: −0.17 | Cholesterol-free [2, 25]: 1.057 | Complete [2, 4]: 0.8847

From patent publication US20250144067A1, “PERSONALIZED STARVATION THERAPY FOR CANCER” (Faeth Therapeutics, Inc., priority 2021, published 2025)
